Reference: patent US5559110A, “Pharmaceutical formulations of cyclic urea type compounds” (The DuPont Merck Pharmaceutical Company, priority 1994, dated 1996)
≈ marks a conversion by molar mass, not a printed value.

How the values were obtained:
[1] = in vivo; cited from earlier work
physchem = assay type: physicochemical
From the text: The cyclic urea antiviral agents of this invention are generally poorly water-soluble. Poor water solubility could be related to low oral bioavailability and dose-related bioavailability. One effect of the formulation ingredients may be to alter water solubility. Water solubility in the presence of dilute concentrations of the formulation ingredients could then be related to oral bioavailability. Dilute formulation ingredients could mimic the dilution of an administered dosage form upon reaching the aqueous environment within the gastrointestinal tract. Aqueous solubility studies of cyclic urea antiviral agents were performed in the presence of dilute concentrations of possible formulation ingredients in this Example 4.
Specifically, aqueous solutions were prepared containing 4% (w/v) of the formulation ingredients listed. Excess solid compound [4R-(4α, 5α, 6β, 7β)]-hexahydro-5,6-bis (hydroxy)-1,3-bis ([(4-hydroxymethyl)phenyl]methyl)-4,7-bis (phenylmethyl)-2H-1,3-diazepin-2-one (Ex. No. 5U) was added and the samples were mixed 24 hours. Samples were filtered, and Ex. No. 5U solubility was determined by measuring filtrate drug concentrations using HPLC.

[2] = assay type: physicochemical
Protocol: Vehicles were evaluated for their capacity to solubilize a cyclic urea compound. Several methods were used. In Method A, vehicles were heated to 70°-80° C. and weighed amounts of the cyclic urea compound were added incrementally until the compound no longer dissolved. This is a visual estimation of solubility. In Method B, vehicles were prepared as in Method A, then cooled to room temperature, and then reheated to 50° C. Suspensions were filtered at 50° C. and compound concentrations in the liltrate filtrate were measured using a high performance liquid chromatographic (HPLC) method, providing the results shown under Method B.
Specifically, the vehicles of Table 1 were prepared and evaluated for solubility of a cyclic urea antiviral agent. The agent for Example 1 was [4R--(4a, 5a, 6β, 7β)]-hexahydro-5,6-bis(hydroxy)-1,3-bis([(4-hydroxymethyl)phenyl]methyl)-4,7-bis(phenylmethyl)-2H-1,3-diazepin-2-one. This compound corresponds to Ex. No. 5U in the above-cited PCT Application WO 93/07128, and is sometimes hereinafter referred to as Ex. No. 5U. In Table 1, all percentages are by weight.

| solubility at 24 h (physchem; 4% peg-60 hydrogenated castor oil, organic solvent or mixture) [µg/mL] | solubility at 24 h (physchem; water) [µg/mL] | solubility at 24 h (physchem; water with 4% peg-8, organic solvent or mixture) [µg/mL] | solubility at 24 h (physchem; water, 4% gelucire 44/14) [µg/mL] | solubility at 24 h (physchem; water, 4% glycerol dilaurate, organic solvent or mixture) [µg/mL] | solubility at 24 h (physchem; water, 4% labrasol) [µg/mL] | solubility at 24 h (physchem; water, 4% peg-4 laurate, organic solvent or mixture) [µg/mL] | solubility at 24 h (physchem; water, 4% peg-8 laurate, organic solvent or mixture) [µg/mL] | solubility at 24 h (physchem; water, 4% peg-8 stearate, organic solvent or mixture) [µg/mL] | solubility at 24 h (physchem; water, 4% peg-40 stearate, organic solvent or mixture) [µg/mL] | solubility in vehicle (in words) [2] | SMILES | oral bioavailability (in words) [1] |
| --- | --- | --- | --- | --- | --- | --- | --- | --- | --- | --- | --- | --- |
|  |  |  |  |  |  |  |  |  |  |  | COC1=CC(=O)C[C@@H](C)[C@]12Oc1c(Cl)c(OC)cc(OC)c1C2=O [griseofulvin] | increased |
| 715 (≈ 1260 µM) | 5 (≈ 8.82 µM) | 12 (≈ 21.2 µM) | 758 (≈ 1340 µM) | 11 (≈ 19.4 µM) | 410 (≈ 723 µM) | 81 (≈ 143 µM) | 283 (≈ 499 µM) | 44 (≈ 77.6 µM) | 718 (≈ 1270 µM) | increased solubility | O=C1N(Cc2ccc(CO)cc2)[C@H](Cc2ccccc2)[C@H](O)[C@@H](O)[C@@H](Cc2ccccc2)N1Cc1ccc(CO)cc1 [Ex. No. 5U, [4R-(4α, 5α, 6β, 7β)]-hexahydro-5,6-bis(hydroxy)-1,3-bis([(4-hydroxymethyl)phenyl]methyl)-4,7-bis(phenylmethyl)-2H-1,3-diazepin-2-one] |  |
